Experimental data from US20110021531A1, “OXAZOLE DERIVATIVES USEFUL AS INHIBITORS OF FAAH” (priority 2009, published 2011).
Where a name gives a salt, the structure may show the parent alone.

Key:
[1] = target: T1, human FAAH (Fatty Acid Amide Hydrolase) (Homo sapiens, UniProt O00519); experiment: FAAH enzyme assay on lysate of CHO cells expressing human FAAH; format: biochemical
T1 construct: The full length FAAH was subcloned into the mammalian expression vector, pcDEF.neo
T1 sequence (O00519 1-579): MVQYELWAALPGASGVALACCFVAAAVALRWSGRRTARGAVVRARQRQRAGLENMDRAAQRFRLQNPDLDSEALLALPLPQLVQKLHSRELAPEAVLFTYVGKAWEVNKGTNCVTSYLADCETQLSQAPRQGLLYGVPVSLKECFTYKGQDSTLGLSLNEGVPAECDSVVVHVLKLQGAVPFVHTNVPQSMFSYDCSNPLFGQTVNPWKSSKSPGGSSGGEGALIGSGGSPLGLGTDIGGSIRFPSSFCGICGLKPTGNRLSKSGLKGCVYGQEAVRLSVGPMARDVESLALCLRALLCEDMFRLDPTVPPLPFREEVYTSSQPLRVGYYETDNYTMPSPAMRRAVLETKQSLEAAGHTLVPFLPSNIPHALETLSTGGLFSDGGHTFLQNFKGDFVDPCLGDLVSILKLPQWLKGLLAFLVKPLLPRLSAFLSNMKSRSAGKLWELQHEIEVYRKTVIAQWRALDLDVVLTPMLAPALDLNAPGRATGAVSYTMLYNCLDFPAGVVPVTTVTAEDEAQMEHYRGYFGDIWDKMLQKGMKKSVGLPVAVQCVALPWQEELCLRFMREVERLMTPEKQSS
Text: (§1) To assist in assay development stable cell lines for human, murine and rat full length FAAH were developed. Human FAAH cDNA (Accession No: NM_001441.1) was purchased from Origene (Rockville, Md.). The full length FAAH was subcloned into the mammalian expression vector, pcDEF.neo, using XbaI and EcoRI restriction sites and used for stable cell line generation.
CHO cells expressing FAAH were used to prepare either crude cell lysate or microsome fractions. To harvest cells, tissue culture media was decanted, the monolayer washed three times with Ca^++Mg^++ free PBS and cells recovered after […] in enzyme free dissociation media (Millipore Corp, Billerica, Mass.). Cells were collected by centrifuging at 2000 rpm for 15 min. and the cell pellet re-suspended with 50 mM HEPES (pH 7.4) containing 1 mM EDTA and the protease inhibitors aprotinin (1 mg/ml) and leupeptin (100 μM). The suspension was sonicated at 4° C. and the cell lysate recovered after centrifuging at 12,000×g (14,600 rpm, SS34 rotor) for 20 min at 4° C. to form a crude pellet of cell debris, nuclei, peroxisomes, lysosomes, and mitochondria; the supernatant or cell lysate was used for FAAH enzyme assay. In some cases, microsomes fractions enriched in FAAH were prepared by centrifuging the cell lysate further at 27,000 rpm (100,000×g) in SW28 rotor for 50 minutes at 4° C. The pellet containing FAAH-enriched microsomes was re-suspend in 50 mM HEPES, (pH 7.4) 1 mM EDTA, and any remaining DNA sheared by passage of material through a 23 gauge needle and aliquots of enzyme were store at −80° C. prior to use.
(§2) (American Radiolabeled Chemicals; 1 mCi/ml) with FAAH (Life Sciences (1995), 56, 1999-2005 and Journal of Pharmacology and Experimented Therapeutics (1997), 283, 729-734), Analytical. Biochemistry (2003), 318, 270-5. In addition, routine assays were performed monitoring hydrolysis of arachidonyl-7-amino-4-methylcoumarin amide (AAMCA) by following increase in fluorescence upon release of 7-amino 4-methyl coumarin (λEX=355 nm, (λEM=460 nm). Analytical. Biochemistry (2005). 343, 143-51
(§3) Assays are performed on either cell lysate or microsome fractions prepared as described or in whole cell format employing either the fluorescent substrate AAMCA (Cayman chemical, Ann Arbor, Mich.,) or ^3H-anandmaide ([ETHANOLAMINE-1-3H]American Radiolabeled Chemicals; 1 mCi/ml). The cell lysate or microsome assay is performed in Costar black wall, clear bottom plates by adding FAAH_CF10 (whole cell, cell lysate or microsome) in assay buffer (50 mM Phosphate, pH 8.0, 1 mM EDTA, 200 mM KCl, 0.2% glycerol, 0.1% fatty acid free BSA) to each well, followed by either DMSO or compound and allowed to incubate at 22-25° C. for fifteen minutes. AAMCA substrate was used to achieve a final concentration of 1 μM and reaction allowed to proceed at room temperature for 1-3 hours. Fluorescent release as a measure of FAAH activity was monitored by reading the plate in a CytoFluor Multiplate Reader (Ex: […]). Whole cell assay is conducted with cells harvested after rinsing tissue culture flasks three times with Ca^++Mg^++ free PBS, incubating for 10 min in Enzyme free dissociation media and centrifuging for 5 minutes at 1,000 rpm in table top centrifuge. Cells are resuspended in assay buffer at desired cell number in (4×10^4 cells/assay in 96-well format; 1×10^4 cells/assay in 384-well format) and assayed as described.
Alternatively, assays are performed using anandamide [ethanolamine 1-^3H] (specific activity of 10 Ci/mmol) diluted with cold anandamide to achieve a final assay concentration of 1 μM anandamide (˜50,000 cpm). Enzyme (CHO cell lysate, brain or liver homogenate) is incubated in assay buffer (50 mM Phosphate, pH 8.0, 1 mM EDTA, 200 mM KCl, 0.2% glycerol, 0.1% fatty acid free BSA) with inhibitor at 25° C. for 30 minutes. The reaction was terminated by addition of 2 volumes of chloroform:methanol (1:1) and mixed by vortexing. […]

[2] = target: T2, rat FAAH (Fatty Acid Amide Hydrolase) (Rattus norvegicus, UniProt P97612); experiment: FAAH whole cell assay, CHO cells expressing rat FAAH; format: cell-based
T2 sequence (P97612 1-579): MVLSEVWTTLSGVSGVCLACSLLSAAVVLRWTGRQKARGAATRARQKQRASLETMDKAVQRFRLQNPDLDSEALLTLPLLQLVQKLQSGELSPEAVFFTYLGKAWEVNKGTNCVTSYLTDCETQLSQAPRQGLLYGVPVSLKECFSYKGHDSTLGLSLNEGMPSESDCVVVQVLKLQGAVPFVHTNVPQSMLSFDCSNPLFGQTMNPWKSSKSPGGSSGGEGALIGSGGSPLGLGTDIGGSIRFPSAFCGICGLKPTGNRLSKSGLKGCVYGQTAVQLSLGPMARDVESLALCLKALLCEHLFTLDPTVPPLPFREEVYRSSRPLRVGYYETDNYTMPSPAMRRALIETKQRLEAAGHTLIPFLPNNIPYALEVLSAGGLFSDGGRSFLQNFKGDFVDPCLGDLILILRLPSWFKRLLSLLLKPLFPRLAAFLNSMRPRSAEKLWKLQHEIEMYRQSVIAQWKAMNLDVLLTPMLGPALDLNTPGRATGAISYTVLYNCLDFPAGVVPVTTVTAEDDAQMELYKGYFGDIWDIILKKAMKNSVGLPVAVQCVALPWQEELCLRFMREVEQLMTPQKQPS
Text: as §1
(§4) Murine (accession number NM_010173) and Rat FAAH (accession number NM_024132) was amplified by reverse transcriptase polymerase chain reaction (RT-PCR) from brain cDNA (BD Biosciences, San Jose, Calif.) using primers 1 and 2 or primers 1 and 3 respectively (see Table). The resulting PCR product was ligated into pCR4 TOPO and DNA sequence confirmed. The full length murine FAAH was subcloned into the mammalian expression vector, pcDEFneo using either EcoRI (murine) or KpnI and EcoRI (rat) restriction sites. Chinese hamster ovary cells (CHO) were transfected following manufacturers protocol (AMAXA). Forty eight hours post transfection, cells were trypsinized and transferred to 96 well plates in Iscove's DMEM media supplemented with 2 mM Glutamine, 10% fetal calf serum, 1 mg/ml geneticin and HT Supplement (0.1 mM sodium hypoxanthine, 0.016 mM thymidine) in order to isolate single clones. Following selection in geneticin, individual clones were selected and FAAH activity was assessed using a whole cell fluorescent anandamide assay, modified from Ramarao et al (2005). Following removal of tissue culture media cells were dislodged following addition of Cellstripper (Mediatech, Inc. Manassas, Va.) and transferred to 96 well black clear bottom assay plate, centrifuged at 1,000 rpm for 3 mins and media removed and replaced with assay buffer (50 mM Iris pH8.0, 1 mM EDTA, 0.1% fatty acid free BSA). The reaction was initiated by addition of fluorescent substrate, AMC Arachidonoyl Amide (Cayman Chemical, Ann Arbor, Mich.) to 1 μM and reaction allowed to proceed for 2 hours at room temperature. Release of fluorescence was monitored in a CytoFluor Multiplate Reader. Cells expressing the highest amount of FAAH activity were selected for study with FAAH inhibitors.
as §2, §3

[3] = target: T1, human FAAH (Fatty Acid Amide Hydrolase); experiment: FAAH whole cell assay, CHO cells expressing human FAAH; format: cell-based
Text: as §1, §4, §2, §3

Structure (SMILES) | IC50 [1] [nM] | IC50 [2] [nM] | IC50 [3] [nM]
CC(C)(O)c1ccc(-c2nc(-c3ccc(F)cc3)oc2Sc2ncc(Cl)cn2)cn1 [Ex 20] | 43 | 29 | 59
CS(=O)(=O)c1ccc(-c2nc(-c3ccccn3)oc2Sc2ccc(Cl)cc2)cc1 [Ex 56, 2-{5-[(4-chlorophenyl)thio]-4-[4-(methylsulfonyl)phenyl]-1,3-oxazol-2-yl}pyridine] | 15 | 16 | 114
CC(C)(O)c1ccc(-c2nc(-c3ccc(F)cc3)oc2Sc2ccc(Cl)cc2)nc1 [Ex 46] | 17 | 10 | 39
Cc1ccc(-c2nc(-c3ccc(C(C)(C)O)nc3)c(Sc3ccc(Cl)cn3)o2)cc1 [Ex 59] | 20 | 40 | 67
CCn1cc(-c2nc(-c3ccc(C(C)(C)O)nc3)c(Sc3ccc(Cl)cc3)o2)cn1 [Ex 111, 2-(5-{5-[(4-chlorophenyl)sulfanyl]-2-(1-ethyl-1H-pyrazol-4-yl)-1,3-oxazol-4-yl)pyridin-2-yl}propan-2-ol] | 11 | 24 | 64
CS(=O)(=O)c1ccc(-c2nc(-c3ccc(F)cc3)oc2Sc2ncc(Cl)cn2)cn1 [Ex 107, 5-Chloro-2-({2-(4-fluorophenyl)-4-[6-(methylsulfonyl)pyridin-3-yl]-1,3-oxazol-5-yl}sulfanyl)pyrimidine] | 24 | 11 | 91
CC(C)(O)c1ccc(-c2nc(Cc3ccc(F)cc3)oc2Sc2ccc(Cl)cn2)cn1 [Ex 123, 2-(5-{5-[(5-Chloropyridin-2-yl)sulfanyl]-2-(4-fluorobenzyl)-1,3-oxazol-4-yl}pyridin-2-yl)propan-2-ol] | 74 | 286 | 510
CC(C)(O)c1ccc(-c2nc(-c3ccccn3)oc2Sc2ccc(Cl)cn2)cn1 [Ex 51, 2-(5-{5-[(5-chloropyridin-2-yl)thio]-2-pyridin-2-yl-1,3-oxazol-4-yl}pyridin-2-yl)propan-2-ol, trifluoroacetic acid salt] | 26 | 107 | 148
C[S+]([O-])c1ccc(-c2nc(-c3ccc(F)cc3)oc2Sc2ccc(Cl)cn2)cn1 (racemic) [Ex 108, (R)-5-Chloro-2-({2-(4-fluorophenyl)-4-[6-(methylsulfinyl)pyridin-3-yl]-1,3-oxazol-5-yl}sulfanyl)pyridine and (S)-5-Chloro-2-({2-(4-fluorophenyl)-4-[6-(methylsulfinyl)pyridin-3-yl]-1,3-oxazol-5-yl}sulfanyl)pyridine] | 5 | 17 | 20
CC(C)(O)c1ccc(-c2nc(-c3ccc(F)c(F)c3)oc2Sc2ccc(Cl)cn2)cn1 [Ex 35] | 27 | 21 | 37
Fc1ccc(-c2nc(-c3ccc(-c4ncon4)nc3)c(Sc3ccc(Cl)cn3)o2)cc1 [Ex 71, 5-Chloro-2-({2-(4-fluorophenyl)-4-[6-(1,2,4-oxadiazol-3-yl)pyridin-3-yl]-1,3-oxazol-5-yl}sulfanyl)pyridine] | 10 | 14 | 30
CC(C)(O)c1cnc(-c2nc(-c3ccc(F)cc3)oc2Sc2ccc(Cl)cn2)cn1 [Ex 3, 2-{5-[5-[(5-Chloropyridin-2-yl)thio]-2-(4-fluorophenyl)-1,3-oxazol-4-yl]pyrazin-2-yl}propan-2-ol] | 23 | 44 | 71
CC(C)(O)c1ncc(-c2nc(-c3ccc(F)cc3)oc2Sc2ccc(Cl)cn2)cn1 [Ex 74, 2-(5-{5-[(5-Chloropyridin-2-yl)sulfanyl]-2-(4-fluorophenyl)-1,3-oxazol-4-yl}pyrimidin-2-yl)propan-2-ol] | 8 | 34 | 37
COc1ccc(Sc2oc(-c3ccc(F)cc3)nc2-c2ccc(C(C)(C)O)nc2)c(F)c1 [Ex 65] | 27 | 21 | 29
CCOC(=O)c1cc(-c2nc(-c3ccc(F)cc3)oc2Sc2ccc(Cl)cn2)on1 [Ex 97, Ethyl 5-{5-[(5-chloropyridin-2-yl)sulfanyl]-2-(4-fluorophenyl)-1,3-oxazol-4-yl}isoxazole-3-carboxylate] | 20 | 10 | 
